# From US20120010178A1, “METHODS AND COMPOUNDS FOR TREATMENT OF NEURODEGENERATIVE DISORDERS” (PRESIDENT AND FELLOWS OF HARVARD COLLEGE, priority 2008, published 2012)
# Entries after “also recorded” stand apart in the source; their conditions may differ.
# Assays:
# SMN [1] = assay: Inhibition of PDGF-stimulated SMN increase in fibroblasts by kinase/receptor inhibitors; format: cell-based, human; conditions: for SMN Cytoplam (inhibition of PDGF-stimulated SMN increase) / SMN GEM Intensity (inhibition of PDGF-stimulated SMN increase) / SMN Nuclear (inhibition of PDGF-stimulated SMN increase): inhibitor at the concentration (nM), fibroblast stimulation with PDGF; for Cell Number (affected by inhibitor): inhibitor at the concentration of the table row, PDGF stimulated fibroblasts; for PDGF-stimulated SMN increase in the cytoplasm in presence of inhibitor (in words) / PDGF-stimulated SMN increase in the nucleus in presence of inhibitor (in words): pre-treatment with p38 inhibitor; for PDGF-stimulated SMN increase in presence of inhibitor (in words): SMA patient fibroblasts, PDGF plus inhibitor or neutralizing antibody
# Method: Fibroblasts from patients suffering from SMA were treated with PDGF at a concentration of 0, 0.3 ng/ml, 0.63 ng/ml, 1.25 ng/ml, 2.5 ng/ml, 5 ng/ml, 10 ng/ml or 20 ng/ml, in the absence or in the presence of 25 uM DMPQ or 25 uM AG-1296 respectively for 72 hours. The levels of both cytoplasmic and nuclear SMN were detected and quantified using the method described in Example 2.
# Fibroblasts from patients suffering from SMA were either control treated or treated with PDGF at a concentration of 0, 0.63 ng/ml, 1.25 ng/ml, 2.5 ng/ml, 5 ng/ml, 10 ng/ml or 20 ng/ml, in the absence or in the presence of 50 uM LY294002 or 2 uM P1-103 respectively for 72 hours. The levels of both cytoplasmic and nuclear SMN were detected and quantified using the method described in Example 2.
# Fibroblasts from patients suffering from SMA were either control treated or treated with PDGF at a concentration of 0, 0.63 ng/ml, 1.25 ng/ml, 2.5 ng/ml, 5 ng/ml, 10 ng/ml or 20 ng/ml, in the absence or in the presence of 2 uM Papamycin for 72 hours. The levels of both cytoplasmic and nuclear SMN were detected and quantified using the method described in Example x.
# A range of concentrations were tested in order not to miss the effects. SMN level were evaluated by Opera Evoteck in each cellular compartment and to assess the cell numbers that are summarized in the Table 3.
# Compounds were stored at appropriate temperature and dissolved accordingly to the manufacturers (Tocris, Enzo, EMD and Sigma-Aldrich) in DMSO (Sigma-Aldrich), unless stated otherwise (Monensin Na in EtOH, DMPQ in water). Growth factors and PDGF neutralizing antibodies (R&D Systems) were reconstituted with buffers recommended by the supplier. For generation of the dose curves, 1×10^3 fibroblasts were plated on to 96-well Greiner Senso plates (VWR) and treated with compounds on the second day then fixed and stained at the indicated time points. For GSK inhibitors and performing p-GSK3b(Ser9) detection, two days after plating growth media containing 5% FBS was replaced to the media with FBS reduced down to 0.5%, to starve cells for 72 hours. Addition of the GSK inhibitors was done in 5% FBS enriched media. As previously described, starvation increases levels of constitutively activate GSK3b kinase, allowing to achieve a more dramatic inhibitory effect when GSK inhibitors are added together with growth factors that are also known to inhibit GSK by Ser-9 phosphorylation. […] For all compounds and growth factors control wells received solvent in amount equivalent to the highest concentration of the compound in a dose curve. For PDGF inhibitory studies, cells were pre-treated with kinase inhibitors for 2 hours and PDGF was added with a fresh kinase inhibitor solution and incubated for an additional 3 days.
# SMN [2] = assay: SMN immunofluorescence quantification (cytoplasm, nucleus, GEMs) in fibroblasts from SMA patients; format: cell-based, human; conditions: for decrease of basal level of SMN: added to the regular serum media in which cells are maintained, no added PDGF; for Avg. SMN fold increase: human PDGF isoforms; for Avg. SMN fold increase / levels of cytoplasmic and nuclear SMN (in words): SMA patient fibroblasts; for levels of cytoplasmic and nuclear SMN (in words): substance alone
# Method: Specifically, fibroblasts from patients suffering from SMA were treated with Ionomycin (a channel modulator), Ouabain (a cardiac glycoside and channel modulator), PDGF, SAHA (an HDAC inhibitor), Lactacystin (a proteasome inhibitor) or WIN 55,212-2 (a cannabinoid receptor […] and GPCR ligand) for 72 hours. The cells were fixed with methanol/acetone and stained with Pharmingen BD antibodies, followed by 488 AlexaFluor staining. Images were obtained with 60× lens on Zeiss LSM510 META on an inverted confocal microscope.
# For example, fibroblasts from patients suffering from SMA were treated with Ouabain, Digoxin or Lanatoside at a concentration of 0, 2.5 nM, 5 nM, 10 nM, 20 nM, 40 nM, 80 nM, […] for 72 hours. The cells were fixed with methanol/acetone and stained with Pharmingen BD antibodies, followed by 488 AlexaFluor staining. Images were obtained with 60× lens on Zeiss LSM510 META on an inverted confocal microscope.
# An assay was established for high-content evaluation of SMN protein level in different cellular compartments after treatment with small molecules. SMN protein was visualized by immunofluorescent staining and multiple fields from each plate well were scanned by an automated confocal Opera microscope. […] For each well, the algorithm generated quantitative parameters representing number of cells, as well as SMN fluorescent intensity per cell in cytoplasm, nucleus, number and intensity of GEMs (FIG. 15). […] During the assay transfer to the robotic platform fixation with the ice cold methanol was technically limited, therefore to preserve the maximum possible window we chose to perform the screen on parental fibroblast with PFA fixation.
# For fibroblast assays, human fibroblasts lines GM09677 (derived from patient with SMA type 1 disease) and GM03814 (derived from unaffected parental SMA carriers) were used (Coriell Cell Repositories). […] For secondary assays cells from GM09677 line were used.
# Fibroblasts were grown in MEM media (Invitrogen) supplemented with 5% Fetal Bovine Serum (FBS, Invitrogen), 2 mM glutamine and 1% penicillin-streptomycin (100 U/ml) in a presence of 5% CO2 at 37° C. For drug treatments, cells were plated and treated 24 h later with 10 μM MG132 (Biomol International), […] Calpeptin (Biomol International), 10 mM ammonium chloride, 1 μM myristoylated PKI, or vehicle for the designated times.
# Compounds were stored at appropriate temperature and dissolved accordingly to the manufacturers (Tocris, Enzo, EMD and Sigma-Aldrich) in DMSO (Sigma-Aldrich), unless stated otherwise (Monensin Na in EtOH, DMPQ in water). Growth factors and PDGF neutralizing antibodies (R&D Systems) were reconstituted with buffers recommended by the supplier. For generation of the dose curves, 1×10^3 fibroblasts were plated on to 96-well Greiner Senso plates (VWR) and treated with compounds on the second day then fixed and stained at the indicated time points. For GSK inhibitors and performing p-GSK3b(Ser9) detection, two days after plating growth media containing 5% FBS was replaced to the media with FBS reduced down to 0.5%, to starve cells for 72 hours. Addition of the GSK inhibitors was done in 5% FBS enriched media.
# SMN [3] = assay: High-content fibroblast screen for compounds that modulate SMN level; conditions: for SMN level in fibroblast screen (increase or decrease): human fibroblasts, 2-3 days with compound;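 for all read-outs here: Anti-SMN immunostaining with confocal imaging of nuclear and cytoplasmic SMN and gem counts, tested at 0.1, 1 and 10 uM, fold change relative to negative control wells on each plate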
# Method: Human fibroblasts were incubated for 2-3 days with compounds from annotated collections. Cells were fixed and stained with an anti-SMN antibody. Confocal imaging was used to quantify SMN fluorescence in nucleus and cytoplasm and count Gems. Data were collected and subsequently analyzed by clustering compounds by suspected mechanism of action and chemical structure.
# Following optimization of assay conditions on day 0, total of 500 human fibroblasts (GM09677 line) per well were seeded in 384-well plates, on day 3 they were treated with compounds (robot CyBio) from the annotated collections and on the 5 day plates were fixed and stained (robot MAPD) with an anti-SMN antibody and secondary antibody conjugated with 448 fluorophore (FIG. 19a). Compounds from the libraries were added in duplicate at three final concentrations of 10, 1 and 0.1 uM.
# SMN detection was done on the automated confocal microscope Opera PerkinElmer with separate fluorescent exposures to 488 nM laser for and a UV light source to detect nuclei stained with Hoechst 33258 with a 20× objective.
# After scanning on the Opera, an XML file extraction workflow, designed with Inforsense KDE, was used to assemble the data from multiple replicate plates of each HCS experiment including the quantitative parameters described above and chemical identities, chemical concentrations and indications of which wells were used for positive and negative controls. […] The fold-induction of SMN intensity values for each well treated with a library chemical were normalized to the SMN average intensity in multiple negative control wells per plate.
# Since it is not known which form of SMN increase is the most essential, hits that scored in a duplicate at least in two different parameters greater than 1.3 fold at any of the three concentrations were selected (FIG. 19d). […] Further, 220 compounds were screened in the absence of anti-SMN primary antibody with the same assay conditions, to filter out the fluorescent compounds.
compound,measurement,setting,value
O=c1cc(N2CCOCC2)oc2c(-c3ccccc3)cccc12 [LY294002],SMN Cytoplam (inhibition of PDGF-stimulated SMN increase),SMN [1],100%
same,SMN GEM Intensity (inhibition of PDGF-stimulated SMN increase),SMN [1],100%
same,SMN Nuclear (inhibition of PDGF-stimulated SMN increase),SMN [1],100%
same,decrease of basal level of SMN,SMN [2],40%
same,reduction of SMN,"SMN [2]; combinatory treatment of 0.5% serum and PI-3 kinase inhibitor, patient cells",20%
CC(=O)O[C@H]1C[C@H](O[C@H]2[C@@H](O)C[C@H](O[C@H]3[C@@H](O)C[C@H](O[C@H]4CC[C@@]5(C)[C@H](CC[C@@H]6[C@@H]5C[C@@H](O)[C@]5(C)[C@@H](C7=CC(=O)OC7)CC[C@]65O)C4)O[C@@H]3C)O[C@@H]2C)O[C@H](C)[C@H]1O[C@@H]1O[C@H](CO)[C@@H](O)[C@H](O)[C@H]1O [Lanatoside C],SMN level in fibroblast screen (increase or decrease),SMN [3],increase SMN
OCCN(CCO)c1nc(N2CCCCC2)c2nc(N(CCO)CCO)nc(N3CCCCC3)c2n1 [Dipyridamole],SMN level in fibroblast screen (increase or decrease),SMN [3],increase SMN
PDGF-AA rec.: recombinant PDGF-AA,Avg. SMN fold increase,SMN [2],1.3-1.4 fold
"C[S+]([O-])c1ccc(-c2nc(-c3ccc(F)cc3)c(-c3ccncc3)[nH]2)cc1 (stereo not shown) [SB203580, 4-(4-Fluorophenyl)-2-(4-methylsulfinylphenyl)-5-(4-pyridyl)-1H-imidazole]",SMN Cytoplam (inhibition of PDGF-stimulated SMN increase),SMN [1],20%
same,SMN GEM Intensity (inhibition of PDGF-stimulated SMN increase),SMN [1],some
same,SMN Nuclear (inhibition of PDGF-stimulated SMN increase),SMN [1],0%
same,Cell Number (affected by inhibitor),SMN [1],Yes
same,PDGF-stimulated SMN increase in the cytoplasm in presence of inhibitor (in words),SMN [1],able to prevent SMN increase induced by PDGF; also recorded: partial inhibition of SMN in the cytoplasm
same,PDGF-stimulated SMN increase in the nucleus in presence of inhibitor (in words),SMN [1],not in the nucleus; also recorded: leaving nuclear SMN unaffected
Nc1ccc(-c2cccc3c(=O)cc(N4CCOCC4)oc23)cc1 [PI-828],SMN level in fibroblast screen (increase or decrease),SMN [3],decreased SMN
Coumermycin A1,concentration at which SMN level was increased,SMN [3]; during screening,10 µM
same,SMN level in fibroblast screen (increase or decrease),SMN [3],increase SMN
PDGF-AB rec.: recombinant PDGF-AB,Avg. SMN fold increase,SMN [2],1.7-1.9 fold
CC(=O)C1=C(O)[C@@H]2[C@H]3c4c[nH]c5cccc(c45)C[C@H]3C(C)(C)N2C1=O [Cyclopiazonic acid],levels of cytoplasmic and nuclear SMN (in words),SMN [2],not active
O=C1Nc2ccc3ncsc3c2/C1=C/Nc1ccc(S(=O)(=O)Nc2ccccn2)cc1 [GW8510],SMN level in fibroblast screen (increase or decrease),SMN [3],SMN is increase
CC(=O)O[C@@H]1[C@@H](OC(C)=O)[C@@H](O)[C@H](Oc2c(-c3ccc(O)cc3)oc3cc(O)cc(O)c3c2=O)O[C@H]1C [SL-0101],PDGF-stimulated SMN increase in presence of inhibitor (in words),SMN [1],didn't have an inhibitory effect
same,SMN Cytoplam (inhibition of PDGF-stimulated SMN increase),SMN [1],20%
same,SMN GEM Intensity (inhibition of PDGF-stimulated SMN increase),SMN [1],20%
same,SMN Nuclear (inhibition of PDGF-stimulated SMN increase),SMN [1],20%
CO[C@H]1C[C@@H]2CC[C@@H](C)[C@@](O)(O2)C(=O)C(=O)N2CCCC[C@H]2C(=O)O[C@H]([C@H](C)C[C@@H]2CC[C@@H](O)[C@H](OC)C2)CC(=O)[C@H](C)/C=C(\C)[C@@H](O)[C@@H](OC)C(=O)[C@H](C)C[C@H](C)/C=C/C=C/C=C/1C [Rapamycin],SMN Cytoplam (inhibition of PDGF-stimulated SMN increase),SMN [1],80%
same,SMN GEM Intensity (inhibition of PDGF-stimulated SMN increase),SMN [1],80-100%
same,SMN Nuclear (inhibition of PDGF-stimulated SMN increase),SMN [1],80-100%
COc1cccc(-c2cc(=O)c3ccccc3o2)c1N [PD98059],PDGF-stimulated SMN increase in presence of inhibitor (in words),SMN [1],only partially inhibited
same,SMN Cytoplam (inhibition of PDGF-stimulated SMN increase),SMN [1],20%
same,SMN GEM Intensity (inhibition of PDGF-stimulated SMN increase),SMN [1],20%
same,SMN Nuclear (inhibition of PDGF-stimulated SMN increase),SMN [1],20%
same,Cell Number (affected by inhibitor),SMN [1],Yes
Ryanodine,levels of cytoplasmic and nuclear SMN (in words),SMN [2],weak effect
Cc1c[nH]c(-c2cnc(NCCNc3ccc(C#N)cn3)nc2-c2ccc(Cl)cc2Cl)n1 [CHIR99021],levels of cytoplasmic and nuclear SMN (in words),SMN [2],increase SMN levels; also recorded: Most active compounds
"FGF2: fibroblast growth factor, RTK ligand",levels of cytoplasmic and nuclear SMN (in words),SMN [2],increases SMN levels
same,levels of cytoplasmic and nuclear SMN (in words),SMN [2]; listed as bFGF,active
Oc1ccc(-c2nc(-c3ccc(F)cc3)c(-c3ccncc3)[nH]2)cc1 [SB202190],SMN Cytoplam (inhibition of PDGF-stimulated SMN increase),SMN [1],20%
same,SMN GEM Intensity (inhibition of PDGF-stimulated SMN increase),SMN [1],some
same,SMN Nuclear (inhibition of PDGF-stimulated SMN increase),SMN [1],0%
same,Cell Number (affected by inhibitor),SMN [1],Yes
same,PDGF-stimulated SMN increase in the cytoplasm in presence of inhibitor (in words),SMN [1],able to prevent SMN increase induced by PDGF; also recorded: partial inhibition of SMN in the cytoplasm
same,PDGF-stimulated SMN increase in the nucleus in presence of inhibitor (in words),SMN [1],not in the nucleus; also recorded: leaving nuclear SMN unaffected
DMSO,decrease of basal level of SMN,SMN [2],20%
N#CC(=C(/N)Sc1ccccc1N)/C(C#N)=C(\N)Sc1ccccc1N [U0126],PDGF-stimulated SMN increase in presence of inhibitor (in words),SMN [1],only partially inhibited
same,SMN Cytoplam (inhibition of PDGF-stimulated SMN increase),SMN [1],20-30% ^
same,SMN GEM Intensity (inhibition of PDGF-stimulated SMN increase),SMN [1],10%
same,SMN Nuclear (inhibition of PDGF-stimulated SMN increase),SMN [1],10%
same,Cell Number (affected by inhibitor),SMN [1],No
COC(=O)C1=C(C)NC(C)=C([N+](=O)[O-])C1c1ccccc1C(F)(F)F (stereo not shown) [Bay K8644],levels of cytoplasmic and nuclear SMN (in words),SMN [2],not active
